{"source": "paper PMC7180948", "about": "“New Insights into 4-Anilinoquinazolines as Inhibitors of Cardiac Troponin I–Interacting Kinase (TNNi3K)” (Molecules, 2020)", "assay_in_all_cases": "biochemical", "set-up_in_all_cases": "KINOMEscan competition binding panel (Eurofins DiscoverX), single concentration, % inhibition", "conditions_in_all_cases": "read-out: 7 at 1 µM % inhibition", "key": {"[1]": {"target": "FER (Homo sapiens, UniProt P16591)", "description": "(§1) KinomeScan® Assay on 7 and 15 was performed as previously described by EuroFins DiscoverX [24]. GSK114 (7) and 15 were submitted for a KINOMEscan® assay to explore the selectivity profile across >400 human kinases at a compound concentration of 1 µM. […] GSK114 (7) is a narrow-spectrum TNNi3K inhibitor but has some potent off-targets including GAK which has been previously reported for this chemotype. […] If utilized together this set of compounds could be useful to investigate TNNi3K biology."}, "[2]": {"target": "EPHA2 (Homo sapiens, UniProt P29317)", "sequence (P29317 whole entry)": "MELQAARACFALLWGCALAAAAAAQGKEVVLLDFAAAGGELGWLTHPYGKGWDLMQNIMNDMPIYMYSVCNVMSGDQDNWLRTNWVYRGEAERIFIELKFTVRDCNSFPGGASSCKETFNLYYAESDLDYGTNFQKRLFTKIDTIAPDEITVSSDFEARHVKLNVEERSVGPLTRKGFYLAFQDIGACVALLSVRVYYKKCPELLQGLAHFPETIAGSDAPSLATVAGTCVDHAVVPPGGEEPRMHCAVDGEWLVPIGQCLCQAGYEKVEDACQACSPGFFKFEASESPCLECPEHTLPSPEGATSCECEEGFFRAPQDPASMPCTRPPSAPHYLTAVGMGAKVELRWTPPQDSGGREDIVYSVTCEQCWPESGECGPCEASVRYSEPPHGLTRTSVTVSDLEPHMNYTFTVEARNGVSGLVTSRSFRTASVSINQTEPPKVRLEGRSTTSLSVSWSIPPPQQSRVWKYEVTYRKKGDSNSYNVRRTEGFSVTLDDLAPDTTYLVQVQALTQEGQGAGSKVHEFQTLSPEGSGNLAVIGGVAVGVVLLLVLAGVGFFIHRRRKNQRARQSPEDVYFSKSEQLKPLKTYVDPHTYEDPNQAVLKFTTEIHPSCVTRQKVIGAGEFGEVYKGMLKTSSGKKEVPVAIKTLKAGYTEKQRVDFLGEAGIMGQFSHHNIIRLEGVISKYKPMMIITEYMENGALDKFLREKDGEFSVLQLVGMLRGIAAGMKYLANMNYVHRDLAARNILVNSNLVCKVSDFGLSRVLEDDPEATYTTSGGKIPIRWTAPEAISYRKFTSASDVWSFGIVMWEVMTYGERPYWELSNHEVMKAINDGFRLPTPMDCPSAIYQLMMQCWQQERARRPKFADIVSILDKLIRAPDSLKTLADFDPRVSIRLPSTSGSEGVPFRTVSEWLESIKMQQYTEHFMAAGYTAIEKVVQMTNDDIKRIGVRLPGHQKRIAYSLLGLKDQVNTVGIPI", "description": "as §1"}, "[3]": {"target": "MAP3K2 (Homo sapiens, UniProt Q9Y2U5)", "description": "as §1"}, "[4]": {"target": "PRKD1 (Homo sapiens, UniProt Q15139)", "sequence (Q15139 whole entry)": "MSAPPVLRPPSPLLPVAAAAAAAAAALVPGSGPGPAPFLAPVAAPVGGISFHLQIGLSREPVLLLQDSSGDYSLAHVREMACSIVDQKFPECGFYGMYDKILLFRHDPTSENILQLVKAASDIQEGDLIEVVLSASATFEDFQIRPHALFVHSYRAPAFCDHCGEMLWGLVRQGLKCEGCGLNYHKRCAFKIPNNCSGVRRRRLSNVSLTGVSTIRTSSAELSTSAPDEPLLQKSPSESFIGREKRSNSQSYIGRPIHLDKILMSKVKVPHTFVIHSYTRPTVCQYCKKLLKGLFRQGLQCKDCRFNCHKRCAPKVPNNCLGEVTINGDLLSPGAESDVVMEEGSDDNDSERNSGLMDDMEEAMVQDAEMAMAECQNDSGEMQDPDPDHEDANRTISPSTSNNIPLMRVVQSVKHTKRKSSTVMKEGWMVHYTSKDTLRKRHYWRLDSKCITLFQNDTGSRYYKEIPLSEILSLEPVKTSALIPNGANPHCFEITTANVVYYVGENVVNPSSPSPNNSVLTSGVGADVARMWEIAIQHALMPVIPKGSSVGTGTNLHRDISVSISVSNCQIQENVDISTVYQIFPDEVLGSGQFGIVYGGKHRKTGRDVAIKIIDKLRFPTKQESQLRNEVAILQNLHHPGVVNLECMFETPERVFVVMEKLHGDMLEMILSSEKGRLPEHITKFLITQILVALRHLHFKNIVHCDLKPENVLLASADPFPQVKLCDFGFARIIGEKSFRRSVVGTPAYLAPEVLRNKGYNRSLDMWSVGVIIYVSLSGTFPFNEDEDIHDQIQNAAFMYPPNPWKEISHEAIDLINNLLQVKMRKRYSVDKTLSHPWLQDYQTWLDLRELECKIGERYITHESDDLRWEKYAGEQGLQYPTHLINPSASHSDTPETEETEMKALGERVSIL", "description": "as §1"}, "[5]": {"target": "SNRK (Homo sapiens, UniProt Q9NRH2)", "sequence (Q9NRH2 whole entry)": "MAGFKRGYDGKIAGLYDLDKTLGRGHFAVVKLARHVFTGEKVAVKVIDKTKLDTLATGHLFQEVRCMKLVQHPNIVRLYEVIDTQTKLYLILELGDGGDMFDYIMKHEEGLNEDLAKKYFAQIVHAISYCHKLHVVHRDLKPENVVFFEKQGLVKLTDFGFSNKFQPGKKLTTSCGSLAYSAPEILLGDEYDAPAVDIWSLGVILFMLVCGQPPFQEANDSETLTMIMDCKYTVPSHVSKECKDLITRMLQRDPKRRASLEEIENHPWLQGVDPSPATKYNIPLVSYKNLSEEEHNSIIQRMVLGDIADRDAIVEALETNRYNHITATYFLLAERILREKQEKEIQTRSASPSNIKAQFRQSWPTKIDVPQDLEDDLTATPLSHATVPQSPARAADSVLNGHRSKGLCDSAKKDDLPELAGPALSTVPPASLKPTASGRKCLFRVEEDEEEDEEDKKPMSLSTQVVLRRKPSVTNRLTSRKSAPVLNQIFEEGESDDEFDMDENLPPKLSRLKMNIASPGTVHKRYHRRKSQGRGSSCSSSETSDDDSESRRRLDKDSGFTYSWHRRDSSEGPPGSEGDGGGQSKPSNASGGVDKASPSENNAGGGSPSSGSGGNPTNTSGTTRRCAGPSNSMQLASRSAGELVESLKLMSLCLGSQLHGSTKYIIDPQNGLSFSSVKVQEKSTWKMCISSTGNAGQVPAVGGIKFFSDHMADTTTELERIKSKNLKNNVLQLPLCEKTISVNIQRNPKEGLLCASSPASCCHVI", "description": "as §1"}, "[6]": {"target": "ERN1 (Homo sapiens, UniProt O75460)", "description": "as §1"}, "[7]": {"target": "DAPK3 (Homo sapiens, UniProt O43293)", "sequence (O43293 whole entry)": "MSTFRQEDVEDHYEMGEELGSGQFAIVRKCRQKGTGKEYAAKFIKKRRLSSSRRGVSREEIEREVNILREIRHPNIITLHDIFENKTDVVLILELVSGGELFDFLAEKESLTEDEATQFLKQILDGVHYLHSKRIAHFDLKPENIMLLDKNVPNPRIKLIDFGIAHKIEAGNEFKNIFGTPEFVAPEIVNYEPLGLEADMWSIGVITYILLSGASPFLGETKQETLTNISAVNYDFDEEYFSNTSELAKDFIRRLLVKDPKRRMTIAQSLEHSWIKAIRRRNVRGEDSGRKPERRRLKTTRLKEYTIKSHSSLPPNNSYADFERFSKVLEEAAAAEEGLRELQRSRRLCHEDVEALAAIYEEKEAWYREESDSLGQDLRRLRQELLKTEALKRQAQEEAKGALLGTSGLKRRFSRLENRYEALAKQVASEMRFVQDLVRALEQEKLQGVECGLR", "description": "as §1"}, "[8]": {"target": "CSNK1A1L (Homo sapiens, UniProt Q8N752)", "description": "as §1"}, "[9]": {"target": "MET (Homo sapiens, UniProt P08581)", "sequence (P08581 whole entry)": "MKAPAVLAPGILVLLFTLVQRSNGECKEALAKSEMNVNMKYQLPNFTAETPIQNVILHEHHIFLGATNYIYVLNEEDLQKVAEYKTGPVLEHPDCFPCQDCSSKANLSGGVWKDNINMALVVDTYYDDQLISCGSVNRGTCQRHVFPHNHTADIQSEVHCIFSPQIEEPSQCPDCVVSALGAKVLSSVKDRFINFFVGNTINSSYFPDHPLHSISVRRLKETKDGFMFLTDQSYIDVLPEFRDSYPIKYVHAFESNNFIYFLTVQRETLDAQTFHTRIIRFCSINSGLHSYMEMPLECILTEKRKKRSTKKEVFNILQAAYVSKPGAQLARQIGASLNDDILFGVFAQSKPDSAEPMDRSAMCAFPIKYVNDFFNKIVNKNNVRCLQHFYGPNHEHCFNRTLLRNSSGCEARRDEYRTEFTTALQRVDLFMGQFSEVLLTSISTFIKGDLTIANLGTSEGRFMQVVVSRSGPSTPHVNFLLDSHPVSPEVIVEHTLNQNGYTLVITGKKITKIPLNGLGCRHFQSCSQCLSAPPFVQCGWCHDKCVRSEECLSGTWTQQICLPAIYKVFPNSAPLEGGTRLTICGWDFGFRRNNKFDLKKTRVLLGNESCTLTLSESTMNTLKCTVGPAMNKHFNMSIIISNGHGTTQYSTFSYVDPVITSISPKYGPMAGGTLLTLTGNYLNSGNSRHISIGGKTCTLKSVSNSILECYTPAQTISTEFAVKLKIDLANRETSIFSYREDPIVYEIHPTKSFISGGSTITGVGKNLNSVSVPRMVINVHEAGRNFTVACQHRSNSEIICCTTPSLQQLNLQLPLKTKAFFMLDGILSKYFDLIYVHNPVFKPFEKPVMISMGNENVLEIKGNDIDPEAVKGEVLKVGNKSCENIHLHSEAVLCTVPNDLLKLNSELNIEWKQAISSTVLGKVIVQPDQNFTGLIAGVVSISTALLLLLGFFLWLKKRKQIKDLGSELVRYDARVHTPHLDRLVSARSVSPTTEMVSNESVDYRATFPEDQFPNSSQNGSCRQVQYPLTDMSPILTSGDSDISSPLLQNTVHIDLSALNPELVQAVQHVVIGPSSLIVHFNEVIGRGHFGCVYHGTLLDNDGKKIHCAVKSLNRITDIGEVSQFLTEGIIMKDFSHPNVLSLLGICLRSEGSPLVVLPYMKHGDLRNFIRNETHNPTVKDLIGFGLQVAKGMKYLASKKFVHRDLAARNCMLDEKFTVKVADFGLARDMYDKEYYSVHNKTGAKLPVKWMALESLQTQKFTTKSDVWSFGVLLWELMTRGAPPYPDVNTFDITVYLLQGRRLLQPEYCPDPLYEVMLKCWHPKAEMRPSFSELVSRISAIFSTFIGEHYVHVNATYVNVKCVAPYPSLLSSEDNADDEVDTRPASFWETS", "description": "as §1"}, "[10]": {"target": "FGFR3 (Homo sapiens, UniProt P22607)", "description": "as §1"}, "[11]": {"target": "AKT2 (Homo sapiens, UniProt P31751)", "description": "as §1"}, "[12]": {"target": "CLK4 (Homo sapiens, UniProt Q9HAZ1)", "sequence (Q9HAZ1 whole entry)": "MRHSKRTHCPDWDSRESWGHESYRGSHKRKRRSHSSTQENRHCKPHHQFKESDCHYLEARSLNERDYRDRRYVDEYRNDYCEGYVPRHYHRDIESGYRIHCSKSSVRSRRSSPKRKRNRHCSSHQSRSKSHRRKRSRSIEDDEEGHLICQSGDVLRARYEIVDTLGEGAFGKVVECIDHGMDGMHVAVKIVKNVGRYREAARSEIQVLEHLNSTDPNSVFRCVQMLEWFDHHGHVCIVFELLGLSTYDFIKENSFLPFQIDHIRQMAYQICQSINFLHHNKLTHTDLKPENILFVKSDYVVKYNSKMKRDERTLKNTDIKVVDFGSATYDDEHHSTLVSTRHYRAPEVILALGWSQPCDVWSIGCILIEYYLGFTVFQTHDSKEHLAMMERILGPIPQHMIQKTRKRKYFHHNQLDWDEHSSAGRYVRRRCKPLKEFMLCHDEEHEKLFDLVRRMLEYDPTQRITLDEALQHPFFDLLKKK", "description": "as §1"}, "[13]": {"target": "CDK3 (Homo sapiens, UniProt Q00526)", "description": "as §1"}, "[14]": {"target": "TLK1 (Homo sapiens, UniProt Q9UKI8)", "description": "as §1"}, "[15]": {"target": "T1, QSK (Homo sapiens, UniProt Q9Y2K2)", "T1 construct": "gene SIK3", "description": "as §1"}, "[16]": {"target": "T2, JAK1(JH1domain-catalytic) (Homo sapiens, UniProt P23458)", "T2 construct": "JH1domain-catalytic", "description": "as §1"}, "[17]": {"target": "AKT3 (Homo sapiens, UniProt Q9Y243)", "description": "as §1"}, "[18]": {"target": "T3, VPS34 (Homo sapiens, UniProt Q8NEB9)", "T3 construct": "gene PIK3C3", "description": "as §1"}, "[19]": {"target": "KIT(V559D,T670I) (Homo sapiens, UniProt P10721, T670I/V559D)", "description": "as §1"}, "[20]": {"target": "BUB1 (Homo sapiens, UniProt O43683)", "description": "as §1"}, "[21]": {"target": "ACVRL1 (Homo sapiens, UniProt P37023)", "description": "as §1"}, "[22]": {"target": "PIK3CD (Homo sapiens, UniProt O00329)", "description": "as §1"}, "[23]": {"target": "T4, TIE2 (Homo sapiens, UniProt Q02763)", "T4 construct": "gene TEK", "description": "as §1"}, "[24]": {"target": "T5, ABL1(H396P)-phosphorylated (Homo sapiens, UniProt P00519, H396P)", "T5 construct": "phosphorylated", "description": "as §1"}}}
{"smiles": "CNS(=O)(=O)c1ccc(N(C)C)c(Nc2ncnc3cc(OC)c(OC)cc23)c1", "note": "[compound 7, 3-((6,7-dimethoxyquinazolin-4-yl)amino)-4-(dimethylamino)-N-methylbenzenesulfonamide]", "values": [{"measurement": "inhibition at 1 µM", "setting": "[1]", "value": 0, "unit": "%"}, {"measurement": "inhibition at 1 µM", "setting": "[2]", "value": 0, "unit": "%"}, {"measurement": "inhibition at 1 µM", "setting": "[3]", "value": 12, "unit": "%"}, {"measurement": "inhibition at 1 µM", "setting": "[4]", "value": 20, "unit": "%"}, {"measurement": "inhibition at 1 µM", "setting": "[5]", "value": 14, "unit": "%"}, {"measurement": "inhibition at 1 µM", "setting": "[6]", "value": 0, "unit": "%"}, {"measurement": "inhibition at 1 µM", "setting": "[7]", "value": 9, "unit": "%"}, {"measurement": "inhibition at 1 µM", "setting": "[8]", "value": 0, "unit": "%"}, {"measurement": "inhibition at 1 µM", "setting": "[9]", "value": 3, "unit": "%"}, {"measurement": "inhibition at 1 µM", "setting": "[10]", "value": 0, "unit": "%"}, {"measurement": "inhibition at 1 µM", "setting": "[11]", "value": 0, "unit": "%"}, {"measurement": "inhibition at 1 µM", "setting": "[12]", "value": 13, "unit": "%"}, {"measurement": "inhibition at 1 µM", "setting": "[13]", "value": 1, "unit": "%"}, {"measurement": "inhibition at 1 µM", "setting": "[14]", "value": 0, "unit": "%"}, {"measurement": "inhibition at 1 µM", "setting": "[15]", "value": 52, "unit": "%"}, {"measurement": "inhibition at 1 µM", "setting": "[16]", "value": 0, "unit": "%"}, {"measurement": "inhibition at 1 µM", "setting": "[17]", "value": 0, "unit": "%"}, {"measurement": "inhibition at 1 µM", "setting": "[18]", "value": 18, "unit": "%"}, {"measurement": "inhibition at 1 µM", "setting": "[19]", "value": 8, "unit": "%"}, {"measurement": "inhibition at 1 µM", "setting": "[20]", "value": 8, "unit": "%"}, {"measurement": "inhibition at 1 µM", "setting": "[21]", "value": 0, "unit": "%"}, {"measurement": "inhibition at 1 µM", "setting": "[22]", "value": 61, "unit": "%"}, {"measurement": "inhibition at 1 µM", "setting": "[23]", "value": 0, "unit": "%"}, {"measurement": "inhibition at 1 µM", "setting": "[24]", "value": 34, "unit": "%"}]}
